Our source for the IC50 values is patent publication US20260085034A1, “N-(BENZHYDRYL)CYCLOALKYLCARBOXAMIDE DERIVATIVES AS INHIBITORS OF GLYCOGEN SYNTHASE 1 (GYS1) AND METHODS OF USE THEREOF” (Maze Therapeutics, Inc., priority 2022, published 2026).

The assay has as its target T1, recombinant hGYS1/GN1 protein (Homo sapiens, UniProt P13807).
T1 sequence (P13807 1-737): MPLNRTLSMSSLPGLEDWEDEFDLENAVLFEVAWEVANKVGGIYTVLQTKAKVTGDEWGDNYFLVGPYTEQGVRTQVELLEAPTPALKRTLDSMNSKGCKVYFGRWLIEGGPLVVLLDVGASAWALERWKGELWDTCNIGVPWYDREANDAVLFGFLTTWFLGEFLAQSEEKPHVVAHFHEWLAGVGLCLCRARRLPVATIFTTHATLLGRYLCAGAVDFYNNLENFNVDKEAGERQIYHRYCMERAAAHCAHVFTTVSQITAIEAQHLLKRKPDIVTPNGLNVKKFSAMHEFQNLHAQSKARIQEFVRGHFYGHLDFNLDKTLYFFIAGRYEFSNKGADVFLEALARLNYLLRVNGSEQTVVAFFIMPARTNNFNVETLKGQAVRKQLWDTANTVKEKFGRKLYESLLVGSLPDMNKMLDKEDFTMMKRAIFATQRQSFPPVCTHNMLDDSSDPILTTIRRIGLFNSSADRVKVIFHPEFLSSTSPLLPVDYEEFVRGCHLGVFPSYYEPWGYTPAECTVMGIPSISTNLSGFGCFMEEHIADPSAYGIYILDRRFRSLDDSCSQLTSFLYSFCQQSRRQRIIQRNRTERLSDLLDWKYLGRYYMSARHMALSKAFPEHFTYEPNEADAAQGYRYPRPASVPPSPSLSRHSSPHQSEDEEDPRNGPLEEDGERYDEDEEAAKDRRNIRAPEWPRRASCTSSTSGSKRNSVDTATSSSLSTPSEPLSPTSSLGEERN
T1 sequence (P46976 1-350 partner): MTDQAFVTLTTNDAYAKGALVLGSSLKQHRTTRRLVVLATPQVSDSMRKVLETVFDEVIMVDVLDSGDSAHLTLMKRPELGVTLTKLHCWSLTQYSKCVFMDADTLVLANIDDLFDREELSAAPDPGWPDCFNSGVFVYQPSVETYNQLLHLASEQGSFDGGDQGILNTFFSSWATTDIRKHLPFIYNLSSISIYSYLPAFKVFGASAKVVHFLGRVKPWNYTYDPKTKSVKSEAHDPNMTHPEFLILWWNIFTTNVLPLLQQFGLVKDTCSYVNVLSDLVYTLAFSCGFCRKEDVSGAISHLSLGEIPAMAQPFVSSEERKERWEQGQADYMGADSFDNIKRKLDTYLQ
As to the kind of experiment: GYS1 coupled enzyme assay (PK/LDH). The following applies: geometric mean of at least 2 assay runs; NADH absorbance at 340 nm. The class given is biochemical. Put shortly:
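Recombinant hGYS1/GN1 (50 nM) with 0.8 mM UDP-glucose, 0.2% glycogen and 1 mM glucose-6-phosphate in Tris pH 7.5, 2.5% DMSO. UDP formation coupled via PK/LDH to NADH oxidation, read at 340 nm over 10 min. Control-normalized slopes fit to Hill equation; IC50 as geometric mean of ≥2 runs.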

The IC50 is the concentration at which inhibition is half-maximal. Consider `CC(C)c1ccc([C@@H](NC(=O)[C@H]2C[C@@H]2F)c2ccn[nH]2)cc1F` (single isomer, unassigned) [compound 11], for which the IC50 was found to be 145 nM.
